Measurements published in ChEMBL document CHEMBL5257088 (J Nat Prod, 2023).
Calls of active or inactive are those of the source. No cut-off for these calls is given here.

How the values were obtained:
[1] = target: T1, Muscarinic acetylcholine receptor M1 (Homo sapiens) (UniProt P11229); experiment: (§1) Partial agonist activity at N-terminal FLAG tagged/C-terminal NanoLuc tagged human muscarinic M1 receptor expressed in HEK293T cells using furimazine as substrate assessed as receptor activation at 100 uM preincubated with substrate for 1 min followed by compound addition and measured for 6 mins 27 sec by NanoBRET assay; type: cell-based; settings: time 387.0 sec
T1 sequence (whole entry): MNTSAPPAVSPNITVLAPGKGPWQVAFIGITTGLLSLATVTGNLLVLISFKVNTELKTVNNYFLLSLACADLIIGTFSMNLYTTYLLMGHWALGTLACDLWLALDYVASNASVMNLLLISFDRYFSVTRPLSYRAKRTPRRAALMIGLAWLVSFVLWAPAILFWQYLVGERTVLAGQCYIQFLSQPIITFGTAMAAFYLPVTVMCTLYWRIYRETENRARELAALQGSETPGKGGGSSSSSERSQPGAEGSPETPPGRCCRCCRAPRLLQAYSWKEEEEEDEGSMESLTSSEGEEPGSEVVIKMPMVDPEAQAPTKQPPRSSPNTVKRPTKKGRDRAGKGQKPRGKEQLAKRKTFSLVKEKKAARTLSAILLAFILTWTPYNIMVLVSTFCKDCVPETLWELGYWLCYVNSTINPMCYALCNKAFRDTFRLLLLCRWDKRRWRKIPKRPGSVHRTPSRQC

[2] = target: T2, Muscarinic acetylcholine receptor M4 (Homo sapiens, UniProt P08173)
T2 sequence (P08173 whole entry): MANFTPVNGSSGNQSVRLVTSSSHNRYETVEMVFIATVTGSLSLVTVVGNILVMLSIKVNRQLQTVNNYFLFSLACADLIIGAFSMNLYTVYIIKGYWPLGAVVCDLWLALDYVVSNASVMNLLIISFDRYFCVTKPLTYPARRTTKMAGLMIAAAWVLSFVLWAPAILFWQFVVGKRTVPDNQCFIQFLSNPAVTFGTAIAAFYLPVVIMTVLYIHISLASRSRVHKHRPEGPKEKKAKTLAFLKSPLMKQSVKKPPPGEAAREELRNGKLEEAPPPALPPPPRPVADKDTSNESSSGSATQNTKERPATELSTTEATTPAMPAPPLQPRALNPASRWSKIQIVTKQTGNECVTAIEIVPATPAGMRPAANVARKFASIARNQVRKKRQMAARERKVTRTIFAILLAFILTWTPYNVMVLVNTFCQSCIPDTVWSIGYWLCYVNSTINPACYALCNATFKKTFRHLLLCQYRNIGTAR
Description: Partial agonist activity at N-terminal FLAG tagged/C-terminal NanoLuc tagged human muscarinic M4 receptor expressed in HEK293T cells using furimazine as substrate assessed as receptor activation preincubated with substrate for 1 min followed by compound addition and measured for 6 mins 27 sec by NanoBRET assay

[3] = target: T3, Muscarinic acetylcholine receptor M3 (Homo sapiens, UniProt P20309); experiment: Partial agonist activity at C-terminal NanoLuc tagged human muscarinic M3 receptor expressed in HEK293T cells using furimazine as substrate assessed as receptor activation at 100 uM preincubated with substrate for 1 min followed by compound addition and measured for 6 mins 27 sec by NanoBRET assay; type: cell-based; settings: time 387.0 sec
Target sequence in this assay (P20309 whole entry, looked up): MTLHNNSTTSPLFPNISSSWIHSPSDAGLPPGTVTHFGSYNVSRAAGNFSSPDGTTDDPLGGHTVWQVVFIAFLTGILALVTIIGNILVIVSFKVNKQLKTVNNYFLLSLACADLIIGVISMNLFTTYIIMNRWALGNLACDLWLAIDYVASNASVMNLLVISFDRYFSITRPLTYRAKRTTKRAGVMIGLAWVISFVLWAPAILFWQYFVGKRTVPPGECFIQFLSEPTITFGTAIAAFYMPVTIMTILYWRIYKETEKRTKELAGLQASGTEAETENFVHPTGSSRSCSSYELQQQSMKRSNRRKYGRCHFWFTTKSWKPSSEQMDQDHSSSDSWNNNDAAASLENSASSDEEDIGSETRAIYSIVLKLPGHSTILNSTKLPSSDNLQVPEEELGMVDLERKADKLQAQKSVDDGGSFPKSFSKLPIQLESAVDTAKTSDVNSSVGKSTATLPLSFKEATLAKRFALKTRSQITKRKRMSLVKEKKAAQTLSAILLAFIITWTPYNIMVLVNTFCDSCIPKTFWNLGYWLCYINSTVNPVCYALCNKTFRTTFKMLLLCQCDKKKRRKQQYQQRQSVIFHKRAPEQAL

[4] = target: T4, Muscarinic acetylcholine receptor M5 (Homo sapiens) (UniProt P08912); experiment: as §1, with “M5” for “M1”; type: cell-based; settings: time 387.0 sec
T4 sequence (whole entry): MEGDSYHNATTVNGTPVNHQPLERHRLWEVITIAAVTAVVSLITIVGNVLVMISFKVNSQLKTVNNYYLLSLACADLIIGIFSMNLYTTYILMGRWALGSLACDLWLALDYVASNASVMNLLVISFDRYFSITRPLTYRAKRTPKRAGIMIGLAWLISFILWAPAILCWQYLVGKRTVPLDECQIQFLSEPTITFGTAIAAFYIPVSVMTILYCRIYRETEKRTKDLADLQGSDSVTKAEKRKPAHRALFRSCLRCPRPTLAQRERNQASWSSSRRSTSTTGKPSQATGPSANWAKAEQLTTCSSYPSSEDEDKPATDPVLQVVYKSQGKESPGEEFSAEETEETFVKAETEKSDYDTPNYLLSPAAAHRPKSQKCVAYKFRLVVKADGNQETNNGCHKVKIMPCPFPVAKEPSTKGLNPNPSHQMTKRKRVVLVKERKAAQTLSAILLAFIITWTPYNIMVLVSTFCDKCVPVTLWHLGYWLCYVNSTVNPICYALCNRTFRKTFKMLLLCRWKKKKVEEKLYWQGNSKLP

[5] = target: T5, Muscarinic acetylcholine receptor M1 (Homo sapiens, UniProt P11229)
T5 sequence (P11229 whole entry): T1 sequence (whole entry)
Description: Partial agonist activity at N-terminal FLAG tagged/C-terminal NanoLuc tagged human muscarinic M1 receptor expressed in HEK293T cells using furimazine as substrate assessed as receptor activation preincubated with substrate for 1 min followed by compound addition and measured for 6 mins 27 sec by NanoBRET assay

[6] = target: T6, Muscarinic acetylcholine receptor M2 (Homo sapiens, UniProt P08172)
T6 sequence (P08172 whole entry): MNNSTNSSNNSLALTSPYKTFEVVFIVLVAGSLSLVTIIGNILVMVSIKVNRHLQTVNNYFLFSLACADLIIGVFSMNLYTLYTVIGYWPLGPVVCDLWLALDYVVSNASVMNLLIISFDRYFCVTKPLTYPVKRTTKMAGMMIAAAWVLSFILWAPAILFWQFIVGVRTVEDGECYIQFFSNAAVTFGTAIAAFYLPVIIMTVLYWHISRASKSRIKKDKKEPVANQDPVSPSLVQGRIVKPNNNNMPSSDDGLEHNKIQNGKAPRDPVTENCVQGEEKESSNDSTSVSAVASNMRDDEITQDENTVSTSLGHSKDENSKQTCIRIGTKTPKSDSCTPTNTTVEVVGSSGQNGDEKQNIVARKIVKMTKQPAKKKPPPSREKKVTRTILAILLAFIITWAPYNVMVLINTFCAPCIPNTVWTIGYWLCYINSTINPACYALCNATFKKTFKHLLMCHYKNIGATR
Description: Partial agonist activity at C-terminal NanoLuc tagged human muscarinic M2 receptor expressed in HEK293T cells using furimazine as substrate assessed as receptor activation preincubated with substrate for 1 min followed by compound addition and measured for 6 mins 27 sec by NanoBRET assay

[7] = target: T7, Muscarinic acetylcholine receptor M5 (Homo sapiens, UniProt P08912)
T7 sequence (P08912 whole entry): T4 sequence (whole entry)
Description: Partial agonist activity at N-terminal FLAG tagged/C-terminal NanoLuc tagged human muscarinic M5 receptor expressed in HEK293T cells using furimazine as substrate assessed as receptor activation preincubated with substrate for 1 min followed by compound addition and measured for 6 mins 27 sec by NanoBRET assay

[8] = target: T8, Muscarinic acetylcholine receptor M4 (Homo sapiens) (UniProt P08173); experiment: as §1, with “M4” for “M1”; type: cell-based; settings: time 387.0 sec
T8 sequence (whole entry): T2 sequence (P08173 whole entry)

[9] = target: T3, Muscarinic acetylcholine receptor M3
Target sequence in this assay (P20309 whole entry): as the sequence (P20309 whole entry, looked up) above
Description: Partial agonist activity at C-terminal NanoLuc tagged human muscarinic M3 receptor expressed in HEK293T cells using furimazine as substrate assessed as receptor activation preincubated with substrate for 1 min followed by compound addition and measured for 6 mins 27 sec by NanoBRET assay

With `CC[C@@H]1C(=O)OC[C@@H]1Cc1c[n+](CCCCCCCC[N+](C)(C)CC(C)(C)CN2C(=O)c3cccc4cccc(c34)C2=O)cn1C` the Activity [1] was “inactive”, the EC50 [2] was 0.0955 µM and the Activity [3] was “inactive”. For the same compound, the Activity [4] was “inactive”.

With `CC(C)(CN1C(=O)c2cccc3cccc(c23)C1=O)C[N+](C)(C)CCCCCC[n+]1c[nH]c(CC2COC(=O)C2)c1` (configuration not stated) the EC50 [5] was 0.251 µM, the EC50 [2] was 2.63 µM and the Activity [3] was “inactive”. The EC50 [6] was 0.251 µM and the Activity [4] was “inactive”.

In the case of `Cn1c[n+](CCCCCC[N+](C)(C)CC(C)(C)CN2C(=O)c3cccc4cccc(c34)C2=O)cc1CC1COC(=O)C1` (configuration not stated), the Activity [1] is reported as “inactive”, the EC50 [2] is reported as 36.3 µM and the Activity [3] is reported as “inactive”. The Activity [4] was “inactive”.

In the case of `Cn1cncc1C[C@H]1COC(=O)C1` [PILOSININE], the Activity [1] is reported as “inactive”, the EC50 [7] is reported as 26.3 µM and the Activity [8] is reported as “inactive”. The Activity [3] was “inactive”.

`O=C1C[C@@H](Cc2cnc[nH]2)CO1` gave an EC50 [9] of 20.9 µM, an EC50 [5] of 6.17 µM and an EC50 [7] of 14.8 µM. The EC50 [2] was 7.41 µM and the EC50 [6] was 1.38 µM.

In the case of `CC[C@H]1C(=O)OC[C@@H]1Cc1c[n+](CCCCCCCC[N+](C)(C)CC(C)(C)CN2C(=O)c3cccc4cccc(c34)C2=O)cn1C`, the EC50 [9] is reported as 31.6 µM, the Activity [1] is reported as “inactive” and the Activity [8] is reported as “inactive”. The Activity [4] was “inactive”.

`CC[C@H]1C(=O)OC[C@@H]1Cc1c[n+](CCCCCC[N+](C)(C)CC(C)(C)CN2C(=O)c3cccc4cccc(c34)C2=O)cn1C` gave an EC50 [9] of 2.82 µM, an EC50 [5] of 1.74 µM and an EC50 [6] of 0.537 µM.

Work on `CC[C@@H]1C(=O)OC[C@@H]1Cc1c[n+](CCCCCC[N+](C)(C)CC(C)(C)CN2C(=O)c3cccc4cccc(c34)C2=O)cn1C` yielded an EC50 [9] of 16.2 µM, an EC50 [5] of 34.7 µM and an EC50 [6] of 1.07 µM.
